Laboratory results published in the supplement of paper PMC9013687.

How the values were obtained:
Danio rerio embryo [1] = experiment: EC20 STC bell shape; higher = less potent; details: exposure time: 25 h
Protocol: (§1)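 Zebrafish embryos (UFZ-OBI strain) were exposed from 2 hpf for 48 h (2 dpf) or 96 h (4 dpf) at 28 °C; spontaneous tail coiling was scored at 25 hpf. Morphological features from automated image analysis (FishInspector), heart rate and locomotor response were fitted with drc models. Quantal endpoints were dichotomised at 2.5 SD from controls and fitted with a log-logistic model; heart rate, pigmentation and STC were normalised to the replicate control mean. Betamethasone was tested as betamethasone dipropionate, diflorasone as diflorasone diacetate.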

Danio rerio embryo [2] = experiment: EC20 Curvature_Increase; higher = less potent; details: exposure time: 2 dpf
Protocol: as §1

Danio rerio embryo [3] = experiment: EC50 Pericard size_Increase
Protocol: as §1

Danio rerio embryo [4] = experiment: EC10 Eye-jaw distance_Decrease; higher = less potent; details: exposure time: 4 dpf
Protocol: as §1

Danio rerio embryo [5] = experiment: EC20 LMR ligth decrease; higher = less potent; details: exposure time: 4 dpf
Protocol: as §1

Danio rerio embryo [6] = experiment: EC20 Body length_Decrease; higher = less potent
Protocol: as §1

Danio rerio embryo [7] = details: exposure time: 4 dpf
Protocol: as §1

Danio rerio embryo [8] = experiment: EC10 Body length_Decrease; higher = less potent
Protocol: as §1

Danio rerio embryo [9] = experiment: EC10 LMR dark; higher = less potent; details: exposure time: 4 dpf
Protocol: as §1

Danio rerio embryo [10] = system: Danio rerio embryo
Protocol: as §1

Danio rerio embryo [11] = experiment: EC10 Any effect; higher = less potent
Protocol: as §1

Danio rerio embryo [12] = experiment: EC20 Pigmentation decrease; higher = less potent; details: exposure time: 2 dpf
Protocol: as §1

Danio rerio embryo [13] = experiment: EC10 Pericard size_Increase; higher = less potent
Protocol: as §1

Danio rerio embryo [14] = experiment: EC10 Otolith-eye distance_Decrease; higher = less potent; details: exposure time: 4 dpf
Protocol: as §1

Danio rerio embryo [15] = experiment: EC10 STC bell shape; higher = less potent; details: exposure time: 25 h
Protocol: as §1

Danio rerio embryo [16] = experiment: EC50 Eye-jaw distance_Decrease; details: exposure time: 4 dpf
Protocol: as §1

Danio rerio embryo [17] = experiment: EC20 Otolith-eye distance_Decrease; higher = less potent; details: exposure time: 4 dpf
Protocol: as §1

Danio rerio embryo [18] = experiment: EC20 Any effect; higher = less potent
Protocol: as §1

Danio rerio embryo [19] = experiment: EC50 Otolith-eye distance_Decrease; details: exposure time: 4 dpf
Protocol: as §1

Danio rerio embryo [20] = experiment: spontaneous tail coiling frequency (coils/min/embryo); higher = more spontaneous movement; details: 25 hpf
Protocol: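 Spontaneous tail coilings of zebrafish embryos exposed from 2 hpf were recorded at 24-25 hpf in 1-min videos and detected by a KNIME workflow from grey-value variance. Betamethasone was tested as the dipropionate, diflorasone as the diacetate.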

Danio rerio embryo [21] = experiment: EC10 Curvature_Increase; higher = less potent; details: exposure time: 2 dpf
Protocol: as §1

Danio rerio embryo [22] = experiment: EC20 LMR dark; higher = less potent; details: exposure time: 4 dpf
Protocol: as §1

Danio rerio embryo [23] = experiment: EC20 Pericard size_Increase; higher = less potent
Protocol: as §1

Danio rerio embryo [24] = experiment: EC10 LMR ligth decrease; higher = less potent; details: exposure time: 4 dpf
Protocol: as §1

Danio rerio embryo [25] = experiment: EC20 Eye-jaw distance_Decrease; higher = less potent; details: exposure time: 4 dpf
Protocol: as §1

Danio rerio embryo [26] = experiment: EC10 Pigmentation decrease; higher = less potent; details: exposure time: 2 dpf
Protocol: as §1

Danio rerio embryo [27] = experiment: EC50 Curvature_Increase; details: exposure time: 2 dpf
Protocol: as §1

Danio rerio embryo [28] = details: exposure time: 2 dpf
Protocol: as §1

Danio rerio embryo [29] = experiment: EC50 Body length_Decrease
Protocol: as §1

O=C(O)Cc1ccccc1Nc1c(Cl)cccc1Cl [Diclofenac]
Details	EC10 Curvature Increase [µM]	EC10 Eye-jaw distance Decrease [µM]	EC10 LMR dark [µM]	EC10 LMR ligth decrease [µM]	EC10 Otolith-eye distance Decrease [µM]	EC10 Pigmentation decrease [µM]	EC10 STC bell shape [µM]	EC20 Curvature Increase [µM]	EC20 Eye-jaw distance Decrease [µM]	EC20 LMR dark [µM]	EC20 LMR ligth decrease [µM]	EC20 Otolith-eye distance Decrease [µM]	EC20 Pigmentation decrease [µM]	EC20 STC bell shape [µM]	EC50 Curvature Increase [µM]	EC50 Eye-jaw distance Decrease [µM]	EC50 LMR dark [µM]	EC50 Otolith-eye distance Decrease [µM]	EC50 Pigmentation decrease [µM]
Danio rerio embryo [1]	–	–	–	–	–	–	–	–	–	–	–	–	–	37.8	–	–	–	–	–
Danio rerio embryo [2]	–	–	–	–	–	–	–	12.1	–	–	–	–	–	–	–	–	–	–	–
Danio rerio embryo [4]	–	5.49	–	–	–	–	–	–	–	–	–	–	–	–	–	–	–	–	–
Danio rerio embryo [5]	–	–	–	–	–	–	–	–	–	–	6.64	–	–	–	–	–	–	–	–
Danio rerio embryo [7]	–	–	–	–	–	–	–	–	–	–	–	–	–	–	–	–	8.07	–	–
Danio rerio embryo [9]	–	–	6.21	–	–	–	–	–	–	–	–	–	–	–	–	–	–	–	–
Danio rerio embryo [12]	–	–	–	–	–	–	–	–	–	–	–	–	13.2	–	–	–	–	–	–
Danio rerio embryo [14]	–	–	–	–	5.67	–	–	–	–	–	–	–	–	–	–	–	–	–	–
Danio rerio embryo [15]	–	–	–	–	–	–	32.4	–	–	–	–	–	–	–	–	–	–	–	–
Danio rerio embryo [16]	–	–	–	–	–	–	–	–	–	–	–	–	–	–	–	10.1	–	–	–
Danio rerio embryo [17]	–	–	–	–	–	–	–	–	–	–	–	6.89	–	–	–	–	–	–	–
Danio rerio embryo [19]	–	–	–	–	–	–	–	–	–	–	–	–	–	–	–	–	–	9.6	–
Danio rerio embryo [21]	11.5	–	–	–	–	–	–	–	–	–	–	–	–	–	–	–	–	–	–
Danio rerio embryo [22]	–	–	–	–	–	–	–	–	–	6.84	–	–	–	–	–	–	–	–	–
Danio rerio embryo [24]	–	–	–	5.85	–	–	–	–	–	–	–	–	–	–	–	–	–	–	–
Danio rerio embryo [25]	–	–	–	–	–	–	–	–	6.88	–	–	–	–	–	–	–	–	–	–
Danio rerio embryo [26]	–	–	–	–	–	10.9	–	–	–	–	–	–	–	–	–	–	–	–	–
Danio rerio embryo [27]	–	–	–	–	–	–	–	–	–	–	–	–	–	–	13.2	–	–	–	–
Danio rerio embryo [28]	–	–	–	–	–	–	–	–	–	–	–	–	–	–	–	–	–	–	18.8

Details	EC10 Any effect [µM]	EC10 Body length Decrease [µM]	EC10 Pericard size Increase [µM]	EC20 Any effect [µM]	EC20 Body length Decrease [µM]	EC20 Pericard size Increase [µM]	EC50 Any effect [µM]	EC50 Body length Decrease [µM]	EC50 LMR ligth decrease [µM]	EC50 Pericard size Increase [µM]	EC50 STC bell shape [µM]	spontaneous tail coiling frequency
Danio rerio embryo [3], exposure time: 2 dpf	–	–	–	–	–	–	–	–	–	12.2	–	–
Danio rerio embryo [3], exposure time: 4 dpf	–	–	–	–	–	–	–	–	–	8.32	–	–
Danio rerio embryo [6], exposure time: 2 dpf	–	–	–	–	12.1	–	–	–	–	–	–	–
Danio rerio embryo [6], exposure time: 4 dpf	–	–	–	–	7.11	–	–	–	–	–	–	–
Danio rerio embryo [8], exposure time: 2 dpf	–	11.1	–	–	–	–	–	–	–	–	–	–
Danio rerio embryo [8], exposure time: 4 dpf	–	6.47	–	–	–	–	–	–	–	–	–	–
Danio rerio embryo [10], exposure time: 2 dpf	–	–	–	–	–	–	12.4	–	–	–	–	–
Danio rerio embryo [10], exposure time: 4 dpf	–	–	–	–	–	–	8.22	–	8.24	–	–	–
Danio rerio embryo [10], exposure time: 25 h	–	–	–	–	–	–	–	–	–	–	50.9	–
Danio rerio embryo [11], exposure time: 2 dpf	10.7	–	–	–	–	–	–	–	–	–	–	–
Danio rerio embryo [11], exposure time: 4 dpf	4.28	–	–	–	–	–	–	–	–	–	–	–
Danio rerio embryo [13], exposure time: 2 dpf	–	–	10.5	–	–	–	–	–	–	–	–	–
Danio rerio embryo [13], exposure time: 4 dpf	–	–	5.93	–	–	–	–	–	–	–	–	–
Danio rerio embryo [18], exposure time: 2 dpf	–	–	–	11.3	–	–	–	–	–	–	–	–
Danio rerio embryo [18], exposure time: 4 dpf	–	–	–	5.45	–	–	–	–	–	–	–	–
Danio rerio embryo [20], 1 µM	–	–	–	–	–	–	–	–	–	–	–	2.73
Danio rerio embryo [20], 2 µM	–	–	–	–	–	–	–	–	–	–	–	2.93
Danio rerio embryo [20], 3.123 µM	–	–	–	–	–	–	–	–	–	–	–	2.81
Danio rerio embryo [20], 4 µM	–	–	–	–	–	–	–	–	–	–	–	2.63
Danio rerio embryo [20], 5.12 µM	–	–	–	–	–	–	–	–	–	–	–	2.43
Danio rerio embryo [20], 6.25 µM	–	–	–	–	–	–	–	–	–	–	–	2.41
Danio rerio embryo [20], 6.4 µM	–	–	–	–	–	–	–	–	–	–	–	2.64
Danio rerio embryo [20], 8 µM	–	–	–	–	–	–	–	–	–	–	–	3.93
Danio rerio embryo [20], 10 µM	–	–	–	–	–	–	–	–	–	–	–	3.72
Danio rerio embryo [20], 12.5 µM	–	–	–	–	–	–	–	–	–	–	–	3.42
Danio rerio embryo [20], 15.6 µM	–	–	–	–	–	–	–	–	–	–	–	4.34
Danio rerio embryo [20], 25 µM	–	–	–	–	–	–	–	–	–	–	–	4.62
Danio rerio embryo [20], 31.25 µM	–	–	–	–	–	–	–	–	–	–	–	3.8
Danio rerio embryo [20], 50 µM	–	–	–	–	–	–	–	–	–	–	–	2.15
Danio rerio embryo [20], 62.5 µM	–	–	–	–	–	–	–	–	–	–	–	1.4
Danio rerio embryo [20], 100 µM	–	–	–	–	–	–	–	–	–	–	–	0
Danio rerio embryo [20], 150 µM	–	–	–	–	–	–	–	–	–	–	–	0
Danio rerio embryo [23], exposure time: 2 dpf	–	–	–	–	–	11.1	–	–	–	–	–	–
Danio rerio embryo [23], exposure time: 4 dpf	–	–	–	–	–	6.72	–	–	–	–	–	–
Danio rerio embryo [29], exposure time: 2 dpf	–	–	–	–	–	–	–	14.2	–	–	–	–
Danio rerio embryo [29], exposure time: 4 dpf	–	–	–	–	–	–	–	8.33	–	–	–	–

CC(=O)Nc1ccc(O)cc1 [acetaminophen]
Danio rerio embryo [20]
Details	spontaneous tail coiling frequency
230 µM	2.54
470 µM	1.5
940 µM	2.42
1875 µM	2.5
1876 µM	3.01
3750 µM	3.63
6250 µM	3.44
7500 µM	1.69
15000 µM	0
